Experiment [1] relates to spontaneous hypertensive rats. Briefly: Anti-hypertensive test in conscious spontaneous hypertensive rats, mean arterial blood pressure by femoral artery puncture. The settings on record: 100 mg./kg. by gavage in 2% starch, second identical dose at the 24th hour, vehicle controls 166. In kind it is in vivo, rat. The method, then: These compounds have been tested pharmacologically and found to have such properties with a desirable wide spread between does producing lowered blood pressure and toxic symptoms. In determining this effect of these compounds on hypertension, adult male, 16-20 weeks old, spontaneous hypertensive rats from Taconic Farms, Germantown, New York, weighing about 300 grams are used. The rats are dosed by gavage with the test compounds at the indicated dose in mg. per kg. of body weight. All doses of drug were suspended in 2% starch (2 ml./kg.). A second identical dose of the test compound is given at the 24th hour. The mean arterial blood pressure (MAP) of the conscious rats is measured directly by femoral artery puncture at the 28th hour.

Experiment [2] deals with cyclic-AMP phosphodiesterase (mouse skin PDE). Briefly: Mouse skin phosphodiesterase (PDE) inhibition test (A). The format is biochemical. The settings on record: final concentration of test compound 10 μg./ml.; epidermal homogenate supernatant of hairless mice. Also noted: key: Active: A compound is considered active if it inhibits more than theophylline, that is, to 50% of control of 1 mM concentration of compound, or to 80% of control for 0.05 mM concentration of compound.

In the case of `c1cc(Nc2nncc3cncn23)n[nH]1` [4-(3-Pyrazolylamino)-imidazo[1,5-d]-as-triazine], the “MAP (mm. Hg) 28th hour” value in experiment [1] was determined as 134 mm. Hg. In addition, the “Mouse Skin Phosphodiesterase (A)” value in experiment [2] is “Active”.
With `CN(C)CCNc1nncc2cncn12` [4-[(2-Dimethylaminoethyl)amino]-imidazo[1,5-d]-as-triazine], the “Mouse Skin Phosphodiesterase (A)” value in experiment [2] is on record as “Active”.
In the case of `CNc1nncc2cncn12` [4-methylamino-imidazo[1,5-d]-as-triazine, 4-Methylamino-imidazo[1,5-d]-as-triazine], in experiment [1], the “MAP (mm. Hg) 28th hour” value was found to be 131 mm. Hg.
For the molecule `CCCc1nc(C)c2cnnc(SC)n12` [Example 61, 8-Methyl-4-(methylthio)-6-propylimidazo[1,5-d]-as-triazine], in “Herbicidal activity”, the herbicidal activity result was “possesses herbicidal activity”.

The record behind these values is patent US4107308A, “Imidazo[1,5-d]-as-triazines” (American Cyanamid Company, priority 1977, dated 1978).
